From ChEMBL document CHEMBL5696443 (Clin Cancer Res, 2016)
Calls of active or inactive are those of the source. The rule behind the calls is not given here.

Key:
[1] = biological target: Proto-oncogene tyrosine-protein kinase receptor Ret (Homo sapiens, UniProt P07949, V804M); assay: Inhibition of human RET V804M mutant using RRRRRRRRRRRVYSTDYYRLFNPS as substrate in presence of [gamma33P]-ATP by HotSpot assay
[2] = biological target: Calcium/calmodulin-dependent protein kinase type II subunit gamma (Homo sapiens, UniProt Q13555); assay: Inhibition of human CAMK2G using KKLNRTLSFAEPG as substrate in presence of [gamma33P]-ATP by HotSpot assay
[3] = biological target: Serine/threonine-protein kinase MARK1 (Homo sapiens, UniProt Q9P0L2); assay: Inhibition of human MARK1 using KKKVSRSGLYRSPSMPENLNRPR as substrate in presence of [gamma33P]-ATP by HotSpot assay
[4] = biological target: Tyrosine-protein kinase Blk (Homo sapiens, UniProt P51451); assay: Inhibition of human BLK using poly (Glu, Tyr)4:1 as substrate in presence of [gamma33P]-ATP by HotSpot assay
[5] = biological target: Tyrosine-protein kinase ABL1 (Homo sapiens, UniProt P00519, Q252H); assay: Inhibition of human ABL1 Q252H mutant using EAIYAAPFAKKK as substrate in presence of [gamma33P]-ATP by HotSpot assay
[6] = biological target: Serine/threonine-protein kinase D1 (Homo sapiens, UniProt Q15139); assay: Inhibition of human PRKD1 using KKLNRTLSVA as substrate in presence of [gamma33P]-ATP by HotSpot assay
[7] = biological target: Fibroblast growth factor receptor 2 (Homo sapiens, UniProt P21802); assay: Inhibition of human FGFR2 using poly (Glu, Tyr)4:1 as substrate in presence of [gamma33P]-ATP by HotSpot assay
[8] = species: Homo sapiens; assay: Inhibition of human CDK2/CyclinA at 1 uM using RB protein as substrate in presence of [gamma33P]-ATP by HotSpot assay relative to control
[9] = biological target: CDK7/Cyclin H/MNAT1 (Homo sapiens) (UniProt P51946+P50613+P51948); assay: Inhibition of human CDK7/CyclinH/MAT1 at 1 uM using MBP as substrate in presence of [gamma33P]-ATP by HotSpot assay relative to control; type: protein-complex assay
[10] = biological target: Casein kinase I isoform gamma-3 (Homo sapiens) (UniProt Q9Y6M4); assay: Inhibition of human CSNK1G3 at 1 uM using KRRRAL[pS]VASLPGL as substrate in presence of [gamma33P]-ATP by HotSpot assay relative to control
[11] = biological target: Ephrin type-A receptor 8 (Homo sapiens) (UniProt P29322); assay: Inhibition of human EPHA8 at 1 uM using poly (Glu, Tyr)4:1 as substrate in presence of [gamma33P]-ATP by HotSpot assay relative to control
[12] = biological target: Inhibitor of nuclear factor kappa-B kinase subunit beta (Homo sapiens) (UniProt O14920); assay: Inhibition of human IKBKB at 1 uM using KKKKERLLDDRHDSGLDSMKDEE as substrate in presence of [gamma33P]-ATP by HotSpot assay relative to control
[13] = biological target: Mitogen-activated protein kinase 12 (Homo sapiens) (UniProt P53778); assay: Inhibition of human P38gamma at 1 uM using MBP as substrate in presence of [gamma33P]-ATP by HotSpot assay relative to control
[14] = tested on: Platelet-derived growth factor receptor alpha (Homo sapiens), P16234 [T674I]; assay: Inhibition of human PDGFRalpha T674I mutant at 1 uM using poly (Glu, Tyr)4:1 as substrate in presence of [gamma33P]-ATP by HotSpot assay relative to control
[15] = biological target: Serine/threonine-protein kinase Sgk3 (Homo sapiens) (UniProt Q96BR1); assay: Inhibition of human SGK3 at 1 uM using GRPRTSSFAEG as substrate in presence of [gamma33P]-ATP by HotSpot assay relative to control
[16] = biological target: SRSF protein kinase 3 (Homo sapiens) (UniProt Q9UPE1); assay: Inhibition of human SRPK3 at 1 uM using GRSRSRSRSR as substrate in presence of [gamma33P]-ATP by HotSpot assay relative to control
[17] = biological target: Serine/threonine-protein kinase 17A (Homo sapiens) (UniProt Q9UEE5); assay: Inhibition of human STK17A at 1 uM using KKLNRTLSFAEPG as substrate in presence of [gamma33P]-ATP by HotSpot assay relative to control
[18] = biological target: Tyrosine-protein kinase SYK (Homo sapiens) (UniProt P43405); assay: Inhibition of human SYK at 1 uM using poly (Glu, Tyr)4:1 as substrate in presence of [gamma33P]-ATP by HotSpot assay relative to control
[19] = biological target: Serine/threonine-protein kinase TBK1 (Homo sapiens) (UniProt Q9UHD2); assay: Inhibition of human TBK1 at 1 uM using MBP as substrate in presence of [gamma33P]-ATP by HotSpot assay relative to control
[20] = biological target: Tyrosine-protein kinase Tec (Homo sapiens) (UniProt P42680); assay: Inhibition of human TEC at 1 uM using poly (Glu, Tyr)4:1 as substrate in presence of [gamma33P]-ATP by HotSpot assay relative to control
[21] = biological target: Non-receptor tyrosine-protein kinase TYK2 (Homo sapiens) (UniProt P29597); assay: Inhibition of human TYK2 at 1 uM using KKSRGDYMTMQIG as substrate in presence of [gamma33P]-ATP by HotSpot assay relative to control
[22] = tested on: KARPAS-299; assay: Antitumor activity against ALK positive human KARPAS-299 cells xenografted in SCID beige mouse assessed as inhibition of tumor growth administered orally once daily for 14 days; type: functional, cell-based; details: dose 10-50 mg/kg, route po, time 14.0 day
[23] = tested on: Mus musculus; assay: In vivo inhibition of ALK phosphorylation in SCID Beige mouse xenografted with ALK positive human KARPAS-299 cells at 10 to 50 mg/kg, po administered once daily for 4 days and measured 24 hrs after last dose by ELISA; type: functional, organism-based; details: dose 10-50 mg/kg, time 5.0 day
[24] = tested on: NCI-H2228; assay: Antitumor activity against ALK positive human NCI-H2228 cells xenografted in SCID beige mouse assessed as tumor regression at 10 to 50 mg/kg, po administered once daily for 21 days and measured 28 days after treatment; type: functional, organism-based; details: dose 10-50 mg/kg, time 28.0 day
[25] = tested on: Epidermal growth factor receptor (Homo sapiens), P00533 [L858R]; details: BaF3, time 72.0 hrs
[26] = tested on: SU-DHL-1; details: time 72 hrs
[27] = tested on: EML4-ALK (Homo sapiens), Q9UM73+Q9HC35 [F1174I]; details: BaF3, dose 200.0 nmol/L, time 3-5 weeks

Sequence of Serine/threonine-protein kinase Sgk3 (Homo sapiens) (Q96BR1 whole entry): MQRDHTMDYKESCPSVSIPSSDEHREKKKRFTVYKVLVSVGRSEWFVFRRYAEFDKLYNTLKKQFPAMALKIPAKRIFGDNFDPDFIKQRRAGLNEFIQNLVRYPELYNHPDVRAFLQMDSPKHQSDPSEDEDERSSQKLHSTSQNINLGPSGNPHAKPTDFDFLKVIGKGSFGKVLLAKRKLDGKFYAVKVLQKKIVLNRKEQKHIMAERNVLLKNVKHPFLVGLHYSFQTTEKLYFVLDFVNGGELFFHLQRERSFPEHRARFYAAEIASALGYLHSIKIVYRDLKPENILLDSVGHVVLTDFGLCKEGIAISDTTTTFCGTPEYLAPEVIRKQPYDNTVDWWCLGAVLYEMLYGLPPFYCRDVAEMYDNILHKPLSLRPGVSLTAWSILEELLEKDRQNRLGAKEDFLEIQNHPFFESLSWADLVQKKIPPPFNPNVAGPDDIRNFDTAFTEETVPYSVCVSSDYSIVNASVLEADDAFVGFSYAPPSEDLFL
Sequence of Inhibitor of nuclear factor kappa-B kinase subunit beta (Homo sapiens) (O14920 whole entry): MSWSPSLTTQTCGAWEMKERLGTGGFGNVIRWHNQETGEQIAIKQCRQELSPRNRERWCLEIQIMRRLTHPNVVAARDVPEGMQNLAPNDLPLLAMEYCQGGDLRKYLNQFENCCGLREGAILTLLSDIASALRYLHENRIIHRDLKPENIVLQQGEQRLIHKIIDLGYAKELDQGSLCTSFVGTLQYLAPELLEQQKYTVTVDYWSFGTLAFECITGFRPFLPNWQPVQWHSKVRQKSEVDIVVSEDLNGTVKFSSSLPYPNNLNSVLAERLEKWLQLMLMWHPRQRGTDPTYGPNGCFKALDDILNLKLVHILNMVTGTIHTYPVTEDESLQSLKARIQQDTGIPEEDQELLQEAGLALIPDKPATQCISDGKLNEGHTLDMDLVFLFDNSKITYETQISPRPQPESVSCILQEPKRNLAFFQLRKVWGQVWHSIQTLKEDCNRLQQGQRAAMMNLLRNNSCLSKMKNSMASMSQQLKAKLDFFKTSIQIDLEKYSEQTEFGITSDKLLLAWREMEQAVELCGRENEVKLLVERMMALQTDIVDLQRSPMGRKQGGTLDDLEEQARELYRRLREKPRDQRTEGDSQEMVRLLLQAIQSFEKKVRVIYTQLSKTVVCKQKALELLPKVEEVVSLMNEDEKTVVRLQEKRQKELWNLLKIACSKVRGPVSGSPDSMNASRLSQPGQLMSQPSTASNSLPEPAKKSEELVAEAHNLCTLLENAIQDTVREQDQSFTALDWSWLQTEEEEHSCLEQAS
Sequence of Calcium/calmodulin-dependent protein kinase type II subunit gamma (Q13555 whole entry): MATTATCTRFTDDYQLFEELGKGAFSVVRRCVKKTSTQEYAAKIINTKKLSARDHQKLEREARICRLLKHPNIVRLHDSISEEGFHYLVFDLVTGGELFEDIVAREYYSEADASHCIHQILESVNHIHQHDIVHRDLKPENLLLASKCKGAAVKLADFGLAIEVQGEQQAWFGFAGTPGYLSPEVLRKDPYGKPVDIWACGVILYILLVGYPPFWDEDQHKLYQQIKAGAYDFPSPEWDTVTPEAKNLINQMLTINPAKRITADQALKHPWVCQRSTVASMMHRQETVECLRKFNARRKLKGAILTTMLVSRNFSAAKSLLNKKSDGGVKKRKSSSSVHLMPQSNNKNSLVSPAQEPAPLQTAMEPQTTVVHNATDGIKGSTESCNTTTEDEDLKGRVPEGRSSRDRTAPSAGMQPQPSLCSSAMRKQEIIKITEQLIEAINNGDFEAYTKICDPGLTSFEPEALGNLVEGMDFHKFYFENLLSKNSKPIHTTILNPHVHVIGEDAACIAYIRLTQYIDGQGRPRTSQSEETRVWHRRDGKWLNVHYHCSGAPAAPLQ
Sequence of SRSF protein kinase 3 (Homo sapiens) (Q9UPE1 whole entry): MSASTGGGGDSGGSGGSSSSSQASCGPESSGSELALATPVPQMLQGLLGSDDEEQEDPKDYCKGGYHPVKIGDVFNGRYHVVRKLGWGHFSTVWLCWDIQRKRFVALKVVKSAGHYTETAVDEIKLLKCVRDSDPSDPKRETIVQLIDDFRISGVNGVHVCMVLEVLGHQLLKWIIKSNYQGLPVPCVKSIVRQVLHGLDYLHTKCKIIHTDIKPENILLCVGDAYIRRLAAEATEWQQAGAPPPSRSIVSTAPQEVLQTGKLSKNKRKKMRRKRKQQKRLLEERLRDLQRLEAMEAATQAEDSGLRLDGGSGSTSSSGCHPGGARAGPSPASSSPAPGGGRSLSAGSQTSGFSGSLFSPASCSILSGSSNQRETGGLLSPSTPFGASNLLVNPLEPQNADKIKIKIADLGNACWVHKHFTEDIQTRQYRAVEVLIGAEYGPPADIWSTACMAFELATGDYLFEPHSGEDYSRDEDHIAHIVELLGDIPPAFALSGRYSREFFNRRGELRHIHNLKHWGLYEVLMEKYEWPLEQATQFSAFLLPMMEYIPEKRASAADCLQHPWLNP
Sequence of Casein kinase I isoform gamma-3 (Homo sapiens) (Q9Y6M4 whole entry, looked up, canonical isoform): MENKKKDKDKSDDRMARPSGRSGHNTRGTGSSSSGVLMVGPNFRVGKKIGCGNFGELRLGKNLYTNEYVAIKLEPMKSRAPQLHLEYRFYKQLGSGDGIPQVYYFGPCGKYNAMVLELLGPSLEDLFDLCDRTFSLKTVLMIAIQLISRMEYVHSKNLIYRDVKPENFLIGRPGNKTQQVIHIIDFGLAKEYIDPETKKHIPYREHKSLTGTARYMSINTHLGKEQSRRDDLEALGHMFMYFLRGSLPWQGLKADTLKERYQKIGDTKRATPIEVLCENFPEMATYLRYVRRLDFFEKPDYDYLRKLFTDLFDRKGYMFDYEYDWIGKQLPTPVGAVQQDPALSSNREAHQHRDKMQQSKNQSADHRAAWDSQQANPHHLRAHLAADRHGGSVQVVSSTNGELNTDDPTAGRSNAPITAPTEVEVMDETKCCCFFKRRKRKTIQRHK
Sequence of Tyrosine-protein kinase Tec (Homo sapiens) (P42680 whole entry): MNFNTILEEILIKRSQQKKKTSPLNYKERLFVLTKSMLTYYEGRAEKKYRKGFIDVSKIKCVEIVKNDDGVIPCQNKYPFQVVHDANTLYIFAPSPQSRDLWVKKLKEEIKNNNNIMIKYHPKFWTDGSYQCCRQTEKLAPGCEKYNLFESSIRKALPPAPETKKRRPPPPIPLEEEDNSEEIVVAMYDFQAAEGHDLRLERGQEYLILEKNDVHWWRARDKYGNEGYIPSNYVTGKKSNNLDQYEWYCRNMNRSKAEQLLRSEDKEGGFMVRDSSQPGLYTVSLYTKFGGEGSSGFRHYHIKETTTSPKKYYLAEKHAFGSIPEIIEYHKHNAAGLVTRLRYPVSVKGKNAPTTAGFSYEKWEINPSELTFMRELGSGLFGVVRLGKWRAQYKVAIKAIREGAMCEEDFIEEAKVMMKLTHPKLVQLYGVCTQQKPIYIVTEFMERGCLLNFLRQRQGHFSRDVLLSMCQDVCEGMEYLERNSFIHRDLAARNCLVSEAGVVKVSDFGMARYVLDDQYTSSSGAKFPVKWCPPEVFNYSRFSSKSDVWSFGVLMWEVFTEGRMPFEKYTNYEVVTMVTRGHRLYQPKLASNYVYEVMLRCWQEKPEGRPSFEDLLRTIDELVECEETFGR
Sequence of Ephrin type-A receptor 8 (Homo sapiens) (P29322 whole entry): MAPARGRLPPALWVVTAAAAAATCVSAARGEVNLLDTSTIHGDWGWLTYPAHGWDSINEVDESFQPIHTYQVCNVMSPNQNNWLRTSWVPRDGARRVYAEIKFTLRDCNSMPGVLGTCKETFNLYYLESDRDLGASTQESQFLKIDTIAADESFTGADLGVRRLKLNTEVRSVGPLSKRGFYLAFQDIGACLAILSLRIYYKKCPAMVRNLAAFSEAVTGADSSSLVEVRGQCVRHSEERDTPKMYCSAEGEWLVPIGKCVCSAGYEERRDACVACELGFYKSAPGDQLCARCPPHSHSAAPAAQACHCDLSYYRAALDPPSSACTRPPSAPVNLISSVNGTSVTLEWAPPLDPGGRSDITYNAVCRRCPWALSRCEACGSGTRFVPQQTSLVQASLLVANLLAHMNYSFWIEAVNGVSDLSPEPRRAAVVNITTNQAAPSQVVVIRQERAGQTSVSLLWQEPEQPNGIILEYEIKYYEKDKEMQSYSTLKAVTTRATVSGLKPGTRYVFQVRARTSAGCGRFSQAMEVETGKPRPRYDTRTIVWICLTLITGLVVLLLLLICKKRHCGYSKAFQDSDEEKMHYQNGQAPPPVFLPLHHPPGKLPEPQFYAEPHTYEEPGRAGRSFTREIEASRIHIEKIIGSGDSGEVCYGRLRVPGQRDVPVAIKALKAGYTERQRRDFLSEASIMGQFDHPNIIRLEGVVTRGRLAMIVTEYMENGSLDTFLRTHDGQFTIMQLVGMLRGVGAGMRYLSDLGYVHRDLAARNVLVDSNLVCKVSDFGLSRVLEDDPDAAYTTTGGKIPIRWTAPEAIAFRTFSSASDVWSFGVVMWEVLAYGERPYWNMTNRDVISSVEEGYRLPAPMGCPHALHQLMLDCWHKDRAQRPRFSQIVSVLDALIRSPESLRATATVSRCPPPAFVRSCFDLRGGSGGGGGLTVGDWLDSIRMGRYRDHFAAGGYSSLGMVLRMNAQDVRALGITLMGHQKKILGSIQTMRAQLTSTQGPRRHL
Sequence of Serine/threonine-protein kinase 17A (Homo sapiens) (Q9UEE5 whole entry): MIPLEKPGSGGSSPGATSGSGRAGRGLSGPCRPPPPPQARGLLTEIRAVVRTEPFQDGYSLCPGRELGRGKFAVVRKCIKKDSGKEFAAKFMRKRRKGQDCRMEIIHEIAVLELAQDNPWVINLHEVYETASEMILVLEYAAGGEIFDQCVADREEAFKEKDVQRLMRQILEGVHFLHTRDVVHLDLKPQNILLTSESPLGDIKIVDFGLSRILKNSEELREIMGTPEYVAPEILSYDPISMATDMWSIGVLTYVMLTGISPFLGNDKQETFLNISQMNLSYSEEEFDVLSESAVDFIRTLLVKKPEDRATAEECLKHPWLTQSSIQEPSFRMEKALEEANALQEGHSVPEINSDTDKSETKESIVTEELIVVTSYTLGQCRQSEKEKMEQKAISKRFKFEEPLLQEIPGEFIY

COc1cc(N2CCC(N3CCN(C)CC3)CC2)ccc1Nc1ncc(Cl)c(Nc2ccccc2P(C)(C)=O)n1 [BRIGATINIB]
IC50 [1]: 22 nM
IC50 [2]: 48 nM
IC50 [3]: 127 nM
IC50 [4]: 136 nM
IC50 [5]: 171 nM
IC50 [6]: 197 nM
IC50 [7]: 228 nM
inhibition [8]: < 90%
inhibition [9]: < 90%
inhibition [10]: < 90%
inhibition [11]: < 90%
inhibition [12]: < 90%
inhibition [13]: < 90%
inhibition [14]: < 90%
inhibition [15]: < 90%
inhibition [16]: < 90%
inhibition [17]: < 90%
inhibition [18]: < 90%
inhibition [19]: < 90%
inhibition [20]: < 90%
inhibition [21]: < 90%
Activity [22]: Dose-Dependent Effect
Activity [23]: Active
Activity [24]: Active
IC90 [25]: 1200 nM
GI50 [26]: 9 nM
inhibition [27]: inactive
